{"source": "patent US20230286995A1", "about": "“METABOLICALLY STABLE PYRIMIDINYL DIHYDROQUINOXALINONES AS TUBULIN POLYMERIZATION INHIBITORS” (UNIVERSITY OF TENNESSEE RESEARCH FOUNDATION, priority 2022, published 2023)", "key": {"A375/TxR xenografts": {"test_system": "A375/TxR xenografts", "assay": "In vivo A375/TxR melanoma xenograft model", "parameters": "species or system NSG mice"}, "[1]": {"test_system": "PC-3/TxR xenograft tumors", "assay": "Subcutaneous PC-3/TxR xenograft model", "assay_type": "in vivo", "settings": "paclitaxel 10 mg/kg, 1 dose/week"}, "Mia PaCa-2 [2]": {"test_system": "Mia PaCa-2", "assay": "Colony formation assay (PDAC)", "assay_type": "cell-based, human", "settings": "tested 1, 2.5, 5 nM", "experimental": "Cells were seeded at 1000 cells per well in 6-well plates in triplicates and treated with vehicle control or 1-5 nmol/L test compounds for 11 to 14 days. The colonies were fixed with 100% methanol and stained with 0.5% crystal violet. Colony area was quantified with Image J software."}, "MDA-MB-231/VxR": {"test_system": "MDA-MB-231/VxR", "assay": "Cytotoxicity assay (MTS, 72 h)", "assay_type": "cell-based", "settings": "Homo sapiens, MDA-MB-231, read-out: IC50 ± SEM (nM) MDA-MB-231/VXR"}, "porcine brain tubulin": {"target": "T1, porcine brain tubulin (Sus scrofa, UniProt P02550+P02554)", "T1 construct": "tubulin mixture containing porcine brain tubulin (3 mg/mL); purchased Cytoskeleton, Inc. T-238P; host or cells: porcine brain", "T1 sequence (P02550 whole entry)": "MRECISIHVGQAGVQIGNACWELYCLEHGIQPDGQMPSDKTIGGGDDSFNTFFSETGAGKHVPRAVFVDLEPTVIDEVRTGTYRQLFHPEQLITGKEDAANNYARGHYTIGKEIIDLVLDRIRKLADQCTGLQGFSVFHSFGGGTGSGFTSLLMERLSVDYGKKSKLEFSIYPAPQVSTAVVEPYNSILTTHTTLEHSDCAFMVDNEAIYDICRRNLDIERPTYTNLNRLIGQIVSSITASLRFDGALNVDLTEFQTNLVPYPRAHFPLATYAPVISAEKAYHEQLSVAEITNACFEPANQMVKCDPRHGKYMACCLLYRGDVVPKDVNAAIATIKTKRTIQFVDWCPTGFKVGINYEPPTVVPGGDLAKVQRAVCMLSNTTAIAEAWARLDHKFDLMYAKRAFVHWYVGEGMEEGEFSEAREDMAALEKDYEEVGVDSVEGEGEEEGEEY", "T1 sequence (P02554 whole entry)": "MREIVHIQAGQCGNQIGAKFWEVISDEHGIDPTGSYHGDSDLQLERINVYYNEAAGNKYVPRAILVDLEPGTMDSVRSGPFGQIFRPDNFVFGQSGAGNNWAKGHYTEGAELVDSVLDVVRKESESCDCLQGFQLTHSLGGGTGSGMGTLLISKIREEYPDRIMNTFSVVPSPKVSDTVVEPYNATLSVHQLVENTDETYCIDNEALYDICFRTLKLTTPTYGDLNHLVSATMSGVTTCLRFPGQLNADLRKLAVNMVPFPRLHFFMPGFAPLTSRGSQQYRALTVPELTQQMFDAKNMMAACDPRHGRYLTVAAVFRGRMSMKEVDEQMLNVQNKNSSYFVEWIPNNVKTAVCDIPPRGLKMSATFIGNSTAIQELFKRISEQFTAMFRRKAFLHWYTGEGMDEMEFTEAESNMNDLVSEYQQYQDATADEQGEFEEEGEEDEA", "assay": "Tubulin polymerization inhibitory assay (FIG. 29A)", "assay_type": "biochemical", "settings": "10 μM, 37° C.; DMSO control 0.3", "experimental": "Tubulin polymerization inhibitory assay: In vitro tubulin polymerization assay was carried out according to the manufacturers' instructions (Cytoskeleton). Briefly, 10 μM of 5v was added into tubulin protein (3 mg/mL, purity>99%), and the mixture was transferred into a microplate reader and incubated at 37° C. […] Colchicine and paclitaxel were used as positive controls. […] The assay was carried out in duplicate."}, "MDA-MB-231": {"test_system": "MDA-MB-231", "assay": "Cytotoxicity assay (MTS, 72 h)", "assay_type": "cell-based", "settings": "Homo sapiens, MDA-MB-231, read-out: IC50 ± SEM (nM) MDA-MB-231; Table 2"}, "A549/TxR": {"test_system": "A549/TxR", "assay": "cells", "settings": "Homo sapiens, read-out: IC50 ± SEM (nM) A549/TxR"}, "PANC-1 [3]": {"test_system": "PANC-1", "assay": "Cytotoxicity assay (MTS, 72 h)", "assay_type": "cell-based", "settings": "Homo sapiens, Example 7, FIG. 20, read-out: calculated IC50, PANC-1 cells", "experimental": "Mia PaCa-2 and PANC-1 cells were seeded in 96-well plates at 4000 and 5000 cells per well, respectively.\nCytotoxicity Assay. […] Each experiment consisted of four replicates."}, "Mia PaCa-2 [4]": {"test_system": "Mia PaCa-2", "assay": "Cytotoxicity assay (MTS, 72 h)", "assay_type": "cell-based", "settings": "Homo sapiens, Example 7, FIG. 20, read-out: calculated IC50, Mia PaCa-2 cells"}, "MDA-MB-231/TxR": {"test_system": "MDA-MB-231/TxR", "assay": "Cytotoxicity assay (MTS, 72 h)", "assay_type": "cell-based", "settings": "Homo sapiens, read-out: IC50 ± SEM (nM) MDA-MB-231/TxR, Table 2, paclitaxel-resistant"}, "PANC-1 [5]": {"test_system": "PANC-1", "assay": "Colony formation assay (PDAC)", "assay_type": "cell-based, human", "settings": "tested 1, 2.5, 5 nM"}, "[6]": {"target": "T2, tubulin protein from bovine brain (Bos taurus, UniProt P81947+Q6B856)", "T2 construct": "tubulin protein from bovine brain origin; purchased Cytoskeleton, Denver, Colo; host or cells: bovine brain", "T2 sequence (P81947 whole entry)": "as the sequence (P02550 whole entry) above, with S136L, G232S, A265I, T340S, E358Q counted along it", "T2 sequence (Q6B856 whole entry)": "as the sequence (P02554 whole entry) above, with A55T, V170M, A296S, V316I, G440E, E441G counted along it", "assay": "Tubulin polymerization assay (FIG. 5A)", "assay_type": "biochemical", "settings": "10 μM, cell-free", "experimental": "Tubulin polymerization reaction was initiated by adding 100 μL of tubulin protein from bovine brain origin (3 mg/ml, Cytoskeleton, Denver, Colo.) into 10 μM of test compounds in general tubulin buffer (80 mM PIPES, 2.0 mM MgCl2, 0.5 mM EGTA, and 1 mM GTP) according to the manufacturer protocol. The reaction kinetics were recorded in every thirty seconds for 1 h at 37° C. and a microplate reader equipped with absorbance settings at 340 nm wavelength was used for this purpose. The experiment was performed in duplicates."}, "Mia PaCa-2 cells": {"test_system": "Mia PaCa-2 cells", "assay": "Scratch migration assay (PDAC)", "assay_type": "cell-based, human", "settings": "5m 2 nM, PTX 4 nM, 48 h; listed as PTX", "experimental": "The Mia PaCa-2 cells (25,000 cells/well) were seeded in 96-well plates and allowed to adhere overnight. At 80-90% confluence, scratch was made with a wound maker. After washing off the debris, medium was replaced and tested compounds were added. Cells were live monitored with IncuCyte and pictures obtained every 2 h. Compared with the control, the wound width of cells under different treatment conditions was quantified according to the endpoint width over starting point."}, "[7]": {"test_system": "A2780/TxR ovarian cancer xenografts", "assay": "Orthotopic A2780/TxR ovarian cancer xenograft model", "settings": "paclitaxel 5 mg/kg IV"}, "logP": {"assay": "logP", "assay_type": "physicochemical", "settings": "Table 1; method not described"}, "[8]": {"test_system": "taxane-resistant melanoma, breast, and lung cancer cells", "assay": "Cytotoxicity, regular and taxane-resistant lines of Table 2", "assay_type": "cell-based", "settings": "Homo sapiens; taxane-resistant melanoma, breast, and lung cancer cells; read-out: IC50 values, range against taxane-resistant cells"}, "DU-145/VxR": {"test_system": "DU-145/VxR", "assay": "Cytotoxicity assay (MTS, 72 h)", "assay_type": "cell-based", "settings": "Homo sapiens, DU-145, read-out: IC50 ± SEM (nM) DU-145/VXR"}, "[9]": {"test_system": "human melanoma and breast cancer cell lines", "assay": "Cytotoxicity, all tested cell lines of Table 1", "assay_type": "cell-based", "settings": "Homo sapiens, melanoma and breast lines of Table 1; read-out: IC50 values, range over all tested cell lines"}, "RPMI-7951": {"test_system": "RPMI-7951", "assay": "Cytotoxicity assay (MTS, 72 h)", "assay_type": "cell-based", "settings": "Homo sapiens, Table 1, read-out: IC50 (nM) Melanoma RPMI-7951"}, "A375/TxR": {"test_system": "A375/TxR", "assay": "Cytotoxicity assay (MTS, 72 h)", "assay_type": "cell-based", "settings": "Homo sapiens, Table 2, paclitaxel-resistant, read-out: IC50 ± SEM (nM) A375/TxR"}, "M14/LCC6MDR1": {"test_system": "M14/LCC6MDR1", "assay": "Cytotoxicity assay (MTS, 72 h)", "assay_type": "cell-based", "settings": "Homo sapiens, read-out: IC50 ± SEM (nM) M14/LCC6MDR1"}, "A-253 and Detroit 562": {"test_system": "A-253 and Detroit 562", "assay": "Cytotoxicity in head and neck cancer cell lines", "assay_type": "cell-based", "settings": "Homo sapiens; FIG. 39A; read-out: IC50 values, range over A-253 and Detroit 562", "experimental": "A panel of dihydroquinoxalinones were tested in two head and neck cancer cell lines, A-253 and Detroit 562. A-253 cells are a human salivary epidermoid carcinoma cell line, whereas Detroit 562 is a head and neck squamous cell carcinoma (HNSCC). Oral cancer is the most common type of head and neck cancer and more than 90% of oral cancers are either oral or oropharyngeal squamous cell carcinoma (SCC). A major clinical dilemma is chemotherapy efficiency targeted for head and neck squamous cell carcinoma (HNSCC). The inability to successfully complete cancer treatment utilizing a standard surgical approach due to an advanced stage of HNSCC and/or resistance of SCC cells to conventional chemotherapy and/or radiotherapy leads to a continuous search for new compounds with cytostatic activity and minor side effects.\nFIGS. 39B and 39C illustrate the graphical representation of the data. […] For example, at treatment levels as low of 0.5 nM, 12k was able to prevent head and neck cancer cell proliferation almost completely, whereas it required 5 nM of 17ya to achieve similar antiproliferation."}}, "note": "Structures can show the parent of a compound that is named as a salt."}
{"compound": "CC(=O)O[C@H]1C(=O)[C@@]2(C)[C@H]([C@H](OC(=O)c3ccccc3)[C@]3(O)C[C@H](OC(=O)[C@H](O)[C@@H](NC(=O)c4ccccc4)c4ccccc4)C(C)=C1C3(C)C)[C@]1(OC(C)=O)CO[C@@H]1C[C@@H]2O", "note": "[Paclitaxel, reference compound]", "values": [{"measurement": "spontaneous lung metastasis", "setting": "A375/TxR xenografts; H&E and anti-human mitochondria IHC", "value": "no effect on the lung spontaneous metastasis"}, {"measurement": "tumor-suppressive effect", "setting": "A375/TxR xenografts; paclitaxel 4 mg/kg IV twice a week", "value": "no significant tumor-suppressive effect"}, {"measurement": "effect on tumor growth", "setting": "A375/TxR xenografts; paclitaxel 10 mg/kg IV, 2 times per week", "value": "ineffective"}, {"measurement": "tumor weight reduction", "setting": "[1]", "value": "insignificant tumor weight reduction"}, {"measurement": "dose at which colony formation was completely inhibited", "setting": "Mia PaCa-2 [2]", "value": 5, "unit": "nM"}, {"measurement": "IC50", "setting": "MDA-MB-231/VxR", "value": "3.4 ± 0.5", "unit": "nM"}, {"measurement": "A340 at which tubulin assembly stabilized", "setting": "porcine brain tubulin", "value": "approximately 0.4"}, {"measurement": "IC50", "setting": "MDA-MB-231", "value": "2.3 ± 0.4", "unit": "nM"}, {"measurement": "IC50", "setting": "A549/TxR", "value": "> 1000", "unit": "nM"}, {"measurement": "IC50", "setting": "PANC-1 [3]", "value": 1.1, "unit": "nM"}, {"measurement": "IC50", "setting": "Mia PaCa-2 [4]", "value": 2.5, "unit": "nM"}, {"measurement": "IC50", "setting": "MDA-MB-231/TxR", "value": "> 50", "unit": "nM"}, {"measurement": "dose with nearly complete inhibition of colony formation", "setting": "PANC-1 [5]", "value": 5, "unit": "nM"}, {"measurement": "effect on microtubule polymerization", "setting": "[6]", "value": "polymerization enhancement"}, {"measurement": "cell migration / wound healing", "setting": "Mia PaCa-2 cells", "value": "inhibited cell migration over 48 hours"}, {"measurement": "effect on A2780/TxR model", "setting": "[7]", "value": "limited effect"}]}
{"compound": "CCNc1nc(N2CC(=O)Nc3cc(OC)ccc32)c2ncccc2n1", "note": "[Compound 5t, 4-(2-(ethylamino)pyrido[3,2-d]pyrimidin-4-yl)-7-methoxy-3,4-dihydroquinoxalin-2(1H)-one]", "values": [{"measurement": "IC50", "setting": "MDA-MB-231/VxR", "value": "2.9 ± 0.4", "unit": "nM"}, {"measurement": "logP", "setting": "logP", "value": 1.72}, {"measurement": "IC50", "setting": "A549/TxR", "value": "5.4 ± 1.7", "unit": "nM"}, {"measurement": "IC50", "setting": "[8]", "value": "0.3 to 5", "unit": "nM"}, {"measurement": "IC50", "setting": "DU-145/VxR", "value": "1.8 ± 0.4", "unit": "nM"}, {"measurement": "IC50", "setting": "[9]", "value": "0.4 to 26", "unit": "nM"}, {"measurement": "effect on microtubule polymerization", "setting": "[6]", "value": "significantly inhibited microtubule polymerization"}, {"measurement": "IC50", "setting": "RPMI-7951", "value": "0.8 ± 0.1", "unit": "nM"}, {"measurement": "IC50", "setting": "A375/TxR", "value": 1.3, "unit": "nM"}]}
{"compound": "COc1cc2c(c(OC)c1OC)-c1ccc(OC)c(=O)cc1[C@@H](NC(C)=O)CC2", "note": "[Colchicine, reference compound]", "values": [{"measurement": "IC50", "setting": "M14/LCC6MDR1", "value": "> 1000", "unit": "nM"}]}
{"compound": "CCNc1nc2c(c(N3CC(=O)Nc4cc(OC)ccc43)n1)CCC2", "note": "[5v HCl, 4-(2-(ethylamino)-6,7-dihydro-5H-cyclopenta[d]pyrimidin-4-yl)-7-methoxy-3,4-dihydroquinoxalin-2(1H)-one]", "values": [{"measurement": "IC50", "setting": "A-253 and Detroit 562", "value": "0.52 to 3.2", "unit": "nM"}]}
